± gives the expanded uncertainty stated by the source.
What was measured:
[1] = xn = mol fraction of the nth substance listed; settings: 101.33 kPa, Liquid
[2] = refractive index (Na D-line) (dimensionless); xn = mol fraction of the nth substance listed; settings: 101.33 kPa, Liquid

C1COCCO1 [1,4-dioxane] + CCOC(=O)C(=O)OCC
x1 = 1
Settings	mass density, 298.15 K [kg/m3]	mass density, 303.15 K [kg/m3]	mass density, 308.15 K [kg/m3]	refractive index, 298.15 K	refractive index, 303.15 K	refractive index, 308.15 K	speed of sound, 298.15 K [m/s]	viscosity, 298.15 K [mPa·s]	viscosity, 303.15 K [mPa·s]	viscosity, 308.15 K [mPa·s]
[1]	1027.6 ± 1.1	1021.9 ± 1.2	1016.2 ± 1.2	–	–	–	1348 ± 3	1.167 ± 0.015	1.069 ± 0.014	0.984 ± 0.013
[2]	–	–	–	1.4202 ± 0.0007	1.417 ± 0.0007	1.4144 ± 0.0007	–	–	–	–

C1COCCO1 [1,4-dioxane] + CCOC(=O)CC(C)=O
x1 = 1
Settings	mass density, 298.15 K [kg/m3]	mass density, 303.15 K [kg/m3]	mass density, 308.15 K [kg/m3]	refractive index, 298.15 K	refractive index, 303.15 K	refractive index, 308.15 K	speed of sound, 298.15 K [m/s]	viscosity, 298.15 K [mPa·s]	viscosity, 303.15 K [mPa·s]	viscosity, 308.15 K [mPa·s]
[1]	1027.6 ± 1.1	1021.9 ± 1.2	1016.2 ± 1.2	–	–	–	1347 ± 3	1.166 ± 0.015	1.069 ± 0.014	0.984 ± 0.013
[2]	–	–	–	1.4201 ± 0.0007	1.417 ± 0.0007	1.4144 ± 0.0007	–	–	–	–

C1COCCO1 [1,4-dioxane] + CCCCCCCCOC(=O)c1ccccc1C(=O)OCCCCCCCC
x1 = 1
Settings	mass density, 298.15 K [kg/m3]	mass density, 303.15 K [kg/m3]	mass density, 308.15 K [kg/m3]	refractive index, 298.15 K	refractive index, 303.15 K	refractive index, 308.15 K	speed of sound, 298.15 K [m/s]	viscosity, 298.15 K [mPa·s]	viscosity, 303.15 K [mPa·s]	viscosity, 308.15 K [mPa·s]
[1]	1027.6 ± 1.1	1021.9 ± 1.2	1016.2 ± 1.2	–	–	–	1348 ± 3	1.166 ± 0.029	1.069 ± 0.027	0.984 ± 0.025
[2]	–	–	–	1.4202 ± 0.0025	1.417 ± 0.0025	1.4144 ± 0.0025	–	–	–	–

CCOC(=O)CC(C)=O [ethyl 3-oxobutanoate] + C1COCCO1
Settings	mass density, 298.15 K [kg/m3]	mass density, 303.15 K [kg/m3]	mass density, 308.15 K [kg/m3]	refractive index, 298.15 K	refractive index, 303.15 K	refractive index, 308.15 K	speed of sound, 298.15 K [m/s]	viscosity, 298.15 K [mPa·s]	viscosity, 303.15 K [mPa·s]	viscosity, 308.15 K [mPa·s]
[1], x2 = 0	1020.9 ± 1.1	1014.9 ± 1.2	1010.2 ± 1.2	–	–	–	1331 ± 3	1.48 ± 0.019	1.339 ± 0.017	1.239 ± 0.016
[1], x2 = 0.1134	1021.5 ± 1.1	1016 ± 1.2	1010.6 ± 1.2	–	–	–	1335 ± 3	1.425 ± 0.018	1.311 ± 0.017	1.197 ± 0.016
[1], x2 = 0.2058	1022.1 ± 1.1	1016.5 ± 1.2	1011 ± 1.2	–	–	–	1338 ± 3	1.386 ± 0.018	1.276 ± 0.017	1.165 ± 0.015
[1], x2 = 0.3054	1022.7 ± 1.1	1017.1 ± 1.2	1011.4 ± 1.2	–	–	–	1340 ± 3	1.346 ± 0.017	1.24 ± 0.016	1.133 ± 0.015
[1], x2 = 0.4008	1023.3 ± 1.1	1017.6 ± 1.2	1011.9 ± 1.2	–	–	–	1342 ± 3	1.309 ± 0.017	1.205 ± 0.016	1.102 ± 0.015
[1], x2 = 0.4986	1024 ± 1.1	1018.2 ± 1.2	1012.4 ± 1.2	–	–	–	1344 ± 3	1.272 ± 0.017	1.172 ± 0.015	1.072 ± 0.014
[1], x2 = 0.5955	1024.7 ± 1.1	1018.8 ± 1.2	1013 ± 1.2	–	–	–	1345 ± 3	1.237 ± 0.016	1.14 ± 0.015	1.044 ± 0.014
[1], x2 = 0.6972	1025.4 ± 1.1	1019.5 ± 1.2	1013.7 ± 1.2	–	–	–	1346 ± 3	1.208 ± 0.016	1.115 ± 0.015	1.021 ± 0.014
[1], x2 = 0.7971	1026.1 ± 1.1	1020.3 ± 1.2	1014.4 ± 1.2	–	–	–	1346 ± 3	1.182 ± 0.015	1.091 ± 0.014	1 ± 0.013
[1], x2 = 0.8964	1026.8 ± 1.1	1021 ± 1.2	1015.2 ± 1.2	–	–	–	1347 ± 3	1.166 ± 0.015	1.077 ± 0.014	0.988 ± 0.013
[2], x2 = 0	–	–	–	1.4166 ± 0.0007	1.4145 ± 0.0007	1.412 ± 0.0007	–	–	–	–
[2], x2 = 0.1134	–	–	–	1.417 ± 0.0007	1.4146 ± 0.0007	1.4122 ± 0.0007	–	–	–	–
[2], x2 = 0.2058	–	–	–	1.4171 ± 0.0007	1.4148 ± 0.0007	1.4124 ± 0.0007	–	–	–	–
[2], x2 = 0.3054	–	–	–	1.4174 ± 0.0007	1.415 ± 0.0007	1.4126 ± 0.0007	–	–	–	–
[2], x2 = 0.4008	–	–	–	1.4176 ± 0.0007	1.4154 ± 0.0007	1.413 ± 0.0007	–	–	–	–
[2], x2 = 0.4986	–	–	–	1.4178 ± 0.0007	1.4155 ± 0.0007	1.413 ± 0.0007	–	–	–	–
[2], x2 = 0.5955	–	–	–	1.418 ± 0.0007	1.416 ± 0.0007	1.4132 ± 0.0007	–	–	–	–
[2], x2 = 0.6972	–	–	–	1.4186 ± 0.0007	1.4162 ± 0.0007	1.4137 ± 0.0007	–	–	–	–
[2], x2 = 0.7971	–	–	–	1.4192 ± 0.0007	1.4166 ± 0.0007	1.414 ± 0.0007	–	–	–	–
[2], x2 = 0.8964	–	–	–	1.4195 ± 0.0007	1.4169 ± 0.0007	1.4144 ± 0.0007	–	–	–	–

CCOC(=O)c1ccccc1C(=O)OCC [diethyl phthalate] + C1COCCO1
Settings	mass density, 298.15 K [kg/m3]	mass density, 303.15 K [kg/m3]	mass density, 308.15 K [kg/m3]	refractive index, 298.15 K	refractive index, 303.15 K	refractive index, 308.15 K	speed of sound, 298.15 K [m/s]	viscosity, 298.15 K [mPa·s]	viscosity, 303.15 K [mPa·s]	viscosity, 308.15 K [mPa·s]
[1], x2 = 0	1115.1 ± 2.1	1110.2 ± 2.1	1105.6 ± 2.1	–	–	–	1446 ± 5	7.926 ± 0.14	6.129 ± 0.11	4.893 ± 0.091
[1], x2 = 0.1133	1110.7 ± 1.9	1105.8 ± 2	1101 ± 2	–	–	–	1435 ± 4	6.52 ± 0.11	5.327 ± 0.093	4.134 ± 0.073
[1], x2 = 0.2083	1106.5 ± 1.8	1101.5 ± 1.9	1096.6 ± 1.9	–	–	–	1427 ± 4	5.536 ± 0.092	4.567 ± 0.077	3.597 ± 0.061
[1], x2 = 0.3086	1101.4 ± 1.7	1096.3 ± 1.8	1091.4 ± 1.8	–	–	–	1418 ± 4	4.593 ± 0.074	3.813 ± 0.062	3.032 ± 0.05
[1], x2 = 0.409	1095.5 ± 1.6	1090.4 ± 1.7	1085.3 ± 1.7	–	–	–	1408 ± 4	3.793 ± 0.059	3.18 ± 0.05	2.568 ± 0.04
[1], x2 = 0.5026	1089.1 ± 1.6	1084 ± 1.6	1078.7 ± 1.6	–	–	–	1399 ± 4	3.122 ± 0.047	2.637 ± 0.04	2.151 ± 0.033
[1], x2 = 0.5985	1081.4 ± 1.5	1076.1 ± 1.5	1070.9 ± 1.5	–	–	–	1390 ± 4	2.544 ± 0.037	2.184 ± 0.032	1.824 ± 0.027
[1], x2 = 0.702	1071.6 ± 1.4	1066.1 ± 1.4	1060.8 ± 1.4	–	–	–	1380 ± 4	2.037 ± 0.029	1.753 ± 0.025	1.468 ± 0.021
[1], x2 = 0.8001	1060.2 ± 1.3	1054.7 ± 1.3	1049.2 ± 1.4	–	–	–	1370 ± 4	1.641 ± 0.022	1.436 ± 0.02	1.23 ± 0.017
[1], x2 = 0.8975	1046.3 ± 1.2	1040.7 ± 1.2	1035 ± 1.3	–	–	–	1359 ± 4	1.319 ± 0.018	1.18 ± 0.016	1.042 ± 0.014
[2], x2 = 0	–	–	–	1.5001 ± 0.0009	1.4978 ± 0.0009	1.4958 ± 0.0009	–	–	–	–
[2], x2 = 0.1133	–	–	–	1.4962 ± 0.0008	1.494 ± 0.0008	1.4917 ± 0.0008	–	–	–	–
[2], x2 = 0.2083	–	–	–	1.4924 ± 0.0008	1.4902 ± 0.0008	1.4882 ± 0.0008	–	–	–	–
[2], x2 = 0.3086	–	–	–	1.4882 ± 0.0008	1.486 ± 0.0008	1.4837 ± 0.0008	–	–	–	–
[2], x2 = 0.409	–	–	–	1.4826 ± 0.0008	1.4805 ± 0.0008	1.4783 ± 0.0008	–	–	–	–
[2], x2 = 0.5026	–	–	–	1.4768 ± 0.0007	1.4747 ± 0.0007	1.4724 ± 0.0007	–	–	–	–
[2], x2 = 0.5985	–	–	–	1.47 ± 0.0007	1.4676 ± 0.0007	1.4653 ± 0.0007	–	–	–	–
[2], x2 = 0.702	–	–	–	1.4608 ± 0.0007	1.4585 ± 0.0007	1.4564 ± 0.0007	–	–	–	–
[2], x2 = 0.8001	–	–	–	1.4504 ± 0.0007	1.4481 ± 0.0007	1.4457 ± 0.0007	–	–	–	–
[2], x2 = 0.8975	–	–	–	1.4376 ± 0.0007	1.435 ± 0.0007	1.4326 ± 0.0007	–	–	–	–

Source: the NIST ThermoML archive (doi:10.1021/je0301489)
